Assay results reported in US10336702B2, “Pharmaceutically active compounds” (BERGENBIO ASA, priority 2015, dated 2019).

Tests used:
Assay type in all cases: biochemical
Akt2 = biological target: T1, Akt2 (Homo sapiens, UniProt P31751); assay: Akt activation assay (PDK1-mediated activation, LANCE Ultra crosstide TR-FRET), Akt2; settings: read-out: Biological Assay 1 IC50 (nM) Akt2
T1 construct: unspecified tag, removed (detagged) (cleaved yes); purchased SignalChem and Proteros (Akt2); Merck Millipore (PDK1) 14-452 (PDK1); none given for Akt2
Description: (§1) Biological Assay 1: Akt Activation Assay
(§2) Addition of a Europium-labelled antibody specific to the phosphopeptide allows energy transfer from the Europium donor to the Ultra Ulight™ acceptor if close enough in proximity.
(§3) Full length active His6-tagged PDK1 was obtained from Merck Millipore (14-452).
(§4) 1× assay buffer (AB): 50 mM HEPES pH 7.5, 1 mM EGTA, 10 mM MgCl2, 0.01% Tween. Immediately before use, DTT to a concentration of 2 mM was added.
(§5) To prepare lipid vesicles: 1 mg/ml PtdIns(3,4,5)P3 solution (in 10 mM HEPES 7.5) was added to 16.7 mg/ml DOPS/DOPC mixture (in 10 mM HEPES pH 7.5) in a ratio of 1:8.3. MilliQ water was added to the solution to generate concentrations of 400 μM DOPS, 400 μM DOPC and 40 μM PtdIns(3,4,5)P3. The mixture was subjected to 5× freeze/thaw cycles and aliquots stored at −20° C.
(§6) 5 μL enzyme in 1×AB was incubated with 2.5 μL test compound. To start the reaction 2.5 μL reaction mix was added which consisted of PDK1, lipid preparations, crosstide and ATP in 1×AB. Final assay concentrations were as follows: 1% DMSO, 5 nM SignalChem Akt1/15 nM SignalChem Akt2/3 nM Signalchem Akt3/5 nM Proteros Akt1/5 nM proteros Akt2/5 nM Proteros Akt3, 5 nM PDK1, 5.5 μM DOPS, 5.5 μM DOPC, 0.55 μM PtdIns(3,4,5)P3, 100 μM ATP, 100 nM LANCE® Ultra Ulight™-Crosstide. After 30 min, the reaction was stopped using 5 μL 40 μM EDTA in 1× Detection buffer for 5 min. For detection, 5 μL 8 nM LANCE® Ultra Europium-anti-phospho-Crosstide antibody in 1× Detection buffer was added to each well and incubated for 1 h. Plates read with the EnVision® Multilabel Plate Reader, excitation at 320 nm and emission at 665 nm and 615 nm. Compound IC50 was determined using a 4-parameter equation.

Akt3 = biological target: T2, Akt3 (Homo sapiens, UniProt Q9Y243); assay: Akt activation assay (PDK1-mediated activation, LANCE Ultra crosstide TR-FRET), Akt3; settings: read-out: Biological Assay 1 IC50 (nM) Akt3
T2 construct: unspecified tag, removed (detagged) (cleaved yes); purchased SignalChem and Proteros (Akt3); Merck Millipore (PDK1) 14-452 (PDK1); none given for Akt3
Description: as §1, §2, §3, §4, §5, §6

Akt1 = biological target: T3, Akt1 (Homo sapiens, UniProt P31749); assay: Akt activation assay (PDK1-mediated activation, LANCE Ultra crosstide TR-FRET), Akt1; settings: read-out: Biological Assay 1 IC50 (nM) Akt1
T3 construct: unspecified tag, removed (detagged) (cleaved yes); purchased SignalChem and Proteros (Akt1); Merck Millipore (PDK1) 14-452 (PDK1); none given for Akt1
Description: as §1, §2, §3, §4, §5, §6

T3 sequence (P31749 whole entry): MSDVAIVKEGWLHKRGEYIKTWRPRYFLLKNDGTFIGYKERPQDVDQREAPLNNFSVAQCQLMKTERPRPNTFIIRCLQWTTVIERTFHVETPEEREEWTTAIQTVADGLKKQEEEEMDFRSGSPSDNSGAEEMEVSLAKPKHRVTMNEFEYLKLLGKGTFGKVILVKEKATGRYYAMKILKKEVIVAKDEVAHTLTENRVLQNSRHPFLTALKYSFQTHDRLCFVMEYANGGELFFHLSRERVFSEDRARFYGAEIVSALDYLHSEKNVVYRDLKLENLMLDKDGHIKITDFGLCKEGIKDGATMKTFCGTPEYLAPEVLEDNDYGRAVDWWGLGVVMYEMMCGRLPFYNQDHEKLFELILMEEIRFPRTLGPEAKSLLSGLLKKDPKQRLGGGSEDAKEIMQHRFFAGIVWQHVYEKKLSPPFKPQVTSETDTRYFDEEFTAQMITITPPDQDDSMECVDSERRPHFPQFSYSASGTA
T2 sequence (Q9Y243 whole entry): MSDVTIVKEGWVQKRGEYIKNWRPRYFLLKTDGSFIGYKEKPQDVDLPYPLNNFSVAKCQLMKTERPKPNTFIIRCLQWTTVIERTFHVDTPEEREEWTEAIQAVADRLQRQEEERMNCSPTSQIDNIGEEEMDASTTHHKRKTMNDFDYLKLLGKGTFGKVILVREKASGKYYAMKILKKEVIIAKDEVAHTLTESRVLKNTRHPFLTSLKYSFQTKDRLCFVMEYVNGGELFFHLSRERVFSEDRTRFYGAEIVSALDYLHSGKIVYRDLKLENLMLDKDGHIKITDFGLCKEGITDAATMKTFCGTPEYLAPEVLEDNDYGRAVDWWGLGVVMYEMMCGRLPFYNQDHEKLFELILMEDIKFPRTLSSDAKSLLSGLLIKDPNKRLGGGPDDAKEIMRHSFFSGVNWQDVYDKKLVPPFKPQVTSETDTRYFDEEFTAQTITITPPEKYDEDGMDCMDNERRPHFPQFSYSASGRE
T1 sequence (P31751 whole entry): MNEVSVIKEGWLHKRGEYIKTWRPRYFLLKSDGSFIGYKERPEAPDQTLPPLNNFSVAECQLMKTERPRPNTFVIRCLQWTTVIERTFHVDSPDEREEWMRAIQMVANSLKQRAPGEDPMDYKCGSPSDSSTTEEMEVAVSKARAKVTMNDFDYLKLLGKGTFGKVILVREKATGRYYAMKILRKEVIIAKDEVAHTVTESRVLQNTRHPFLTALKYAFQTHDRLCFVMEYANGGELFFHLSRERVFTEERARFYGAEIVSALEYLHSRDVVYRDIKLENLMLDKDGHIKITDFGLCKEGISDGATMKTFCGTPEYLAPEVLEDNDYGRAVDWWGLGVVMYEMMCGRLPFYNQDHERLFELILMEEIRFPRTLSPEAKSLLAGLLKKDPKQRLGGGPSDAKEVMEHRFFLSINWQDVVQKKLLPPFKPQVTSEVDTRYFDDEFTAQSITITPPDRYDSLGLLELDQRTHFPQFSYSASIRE

| Structure (SMILES) | IC50 (Akt2) | IC50 (Akt3) | IC50 (Akt1) |
| --- | --- | --- | --- |
| CC(=O)N[C@H]1CC[C@H](CC(=O)Nc2cnc(-c3ccc([C@H](C)N)cc3)c(-c3ccccc3)c2)CC1 [Example A8, 2-(trans-4-acetamidocyclohexyl)-N-(6-(4-((S)-1-aminoethyl)phenyl)-5-phenylpyridin-3-yl)acetamide] | 6900 nM | 530 nM | > 30000 nM |
| CC(=O)N[C@H]1CC[C@H](CC(=O)Nc2cnc(-c3ccc(C4(N)COC4)cc3)c(-c3ccccc3)c2)CC1 [Example 14, 2-(trans-4-acetamidocyclohexyl)-N-(6-(4-(3-aminooxetan-3-yl)phenyl)-5-phenylpyridin-3-yl)acetamide] | 1300 nM | 600 nM | > 30000 nM |
| COC1CCC(CC(=O)Nc2cnc(-c3ccc(C4(N)COC4)cc3)c(-c3ccccc3)c2)CC1 (mixture of isomers) [Example 21, N-(6-(4-(3-aminooxetan-3-yl)phenyl)-5-phenylpyridin-3-yl)-2-(4-methoxycyclohexyl)acetamide] | 1100 nM | 210 nM | > 55000 nM |
| CC1(C(=O)N[C@H]2CC[C@H](CC(=O)Nc3cnc(-c4ccc(C(C)(C)N)cc4)c(-c4ccccc4)c3)CC2)CC1 [Example A21, N-(trans-4-(2-((6-(4-(2-aminopropan-2-yl)phenyl)-5-phenylpyridin-3-yl)amino)-2-oxoethyl)cyclohexyl)-1-methylcyclopropane-1-carboxamide] | 4100 nM | 55 nM | > 37000 nM |
| CN(C(=O)CC(C)(C)C)[C@H]1CC[C@H](CC(=O)Nc2cnc(-c3ccc(C(C)(C)N)cc3)c(-c3ccccc3)c2)CC1 [Example A30, N-(trans-4-(2-((6-(4-(2-aminopropan-2-yl)phenyl)-5-phenylpyridin-3-yl)amino)-2-oxoethyl)cyclohexyl)-N,3,3-trimethylbutanamide] | 16000 nM | 290 nM | > 30000 nM |
| C[C@H](N)c1ccc(-c2ncc(NC(=O)C[C@H]3CC[C@H](N(C)S(C)(=O)=O)CC3)cc2-c2ccccc2)cc1 [Example A13, N-(6-(4-((S)-1-aminoethyl)phenyl)-5-phenylpyridin-3-yl)-2-(trans-4-(N-methylmethylsulfonamido)cyclo-hexyl)acetamide] | 8100 nM | 830 nM | > 30000 nM |
| CC(C)(C)C(=O)N[C@H]1CC[C@H](CC(=O)Nc2cnc(-c3ccc(C(C)(C)N)cc3)c(-c3ccccc3)c2)CC1 [Example A34, N-(trans-4-(2-((6-(4-(2-aminopropan-2-yl)phenyl)-5-phenylpyridin-3-yl)amino)-2-oxoethyl)cyclohexyl)pivalamide] |  | 160 nM | > 30000 nM |
| CN(C(=O)CC1CC1)[C@H]1CC[C@H](CC(=O)Nc2cnc(-c3ccc(C(C)(C)N)cc3)c(-c3ccccc3)c2)CC1 [Example A32, N-(trans-4-(2-((6-(4-(2-aminopropan-2-yl)phenyl)-5-phenylpyridin-3-yl)amino)-2-oxoethyl)cyclohexyl)-2-cyclopropyl-N-methylacetamide] | 9700 nM | 630 nM | > 30000 nM |
| C[C@H](N)c1ccc(-c2ncc(NC(=O)C[C@H]3CC[C@H](NC(=O)C(C)(C)C(F)(F)F)CC3)cc2-c2ccccc2)cc1 [Example A10, N-(trans-4-(2-((6-(4-((S)-1-aminoethyl)phenyl)-5-phenylpyridin-3-yl)amino)-2-oxoethyl)cyclohexyl)-3,3,3-trifluoro-2,2-dimethylpropanamide] | 18000 nM | 4600 nM | > 30000 nM |
| CC(=O)N[C@H]1CC[C@H](CC(=O)Nc2cnc(-c3ccc([C@]4(N)C[C@@H](O)C4)cc3)c(-c3ccccc3)c2)CC1 [Example 13, 2-(trans-4-acetamidocyclohexyl)-N-(6-(4-(trans-1-amino-3-hydroxycyclobutyl)phenyl)-5-phenylpyridin-3-yl)acetamide] | 480 nM | 220 nM |  |
| C[C@]1(O)C[C@@](N)(c2ccc(-c3ncc(NC(=O)C[C@H]4CC[C@H](NC(=O)C(F)F)CC4)cc3-c3ccccc3)cc2)C1 [Example A5, N-(trans-4-(2-((6-(4-(trans-1-amino-3-hydroxy-3-methylcyclobutyl)phenyl)-5-phenylpyridin-3-yl)amino)-2-oxoethyl)cyclohexyl)-2,2-difluoroacetamide] | 43 nM | 10 nM | 760 nM |
| CC(=O)N[C@H]1CC[C@H](CC(=O)Nc2cnc(-c3ccc([C@@H](C)N)cc3)c(-c3ccccc3)c2)CC1 [Example A9, 2-(trans-4-acetamidocyclohexyl)-N-(6-(4-((R)-1-aminoethyl)phenyl)-5-phenylpyridin-3-yl)acetamide] | 400 nM | 80 nM |  |
| C[C@@H](N)c1ccc(-c2ncc(NC(=O)C[C@H]3CC[C@H](NC(=O)C(C)(C)C(F)(F)F)CC3)cc2-c2ccccc2)cc1 [Example A11, N-(trans-4-(2-((6-(4-((R)-1-aminoethyl)phenyl)-5-phenylpyridin-3-yl)amino)-2-oxoethyl)cyclohexyl)-3,3,3-trifluoro-2,2-dimethylpropanamide] | 1500 nM | 880 nM |  |

More lines, in order of falling IC50 (Akt3), values ahead:

| IC50 (Akt2) | IC50 (Akt3) | IC50 (Akt1) | Structure (SMILES) |
| --- | --- | --- | --- |
| > 26000 nM | 6400 nM | > 30000 nM | Cc1cscc1-c1cc(NC(=O)C[C@H]2CC[C@H](N(C)S(C)(=O)=O)CC2)cnc1-c1ccc(C2(N)CCC2)cc1 [Example 19, N-(6-(4-(1-aminocyclobutyl)phenyl)-5-(4-methylthiophen-3-yl)pyridin-3-yl)-2-(trans-4-(N-methylmethylsulfonamido)cyclohexyl)acetamide] |
| 22000 nM | 1900 nM | > 30000 nM | CC(=O)N[C@H]1CC[C@H](CC(=O)Nc2cnc(-c3ccc(C(C)(C)N)cc3)c(-c3ccsc3)c2)CC1 [Example A23, 2-(trans-4-acetamidocyclohexyl)-N-(6-(4-(2-aminopropan-2-yl)phenyl)-5-(thiophen-3-yl)pyridin-3-yl)acetamide] |
| 6800 nM | 160 nM | > 30000 nM | CC(C)(N)c1ccc(-c2ncc(NC(=O)C[C@H]3CC[C@H](NC(=O)C4CCC4)CC3)cc2-c2ccccc2)cc1 [Example A36, N-(trans-4-(2-((6-(4-(2-aminopropan-2-yl)phenyl)-5-phenylpyridin-3-yl)amino)-2-oxoethyl)cyclohexyl)cyclobutanecarboxamide] |
| 3500 nM | 68 nM | > 30000 nM | CC(C)C(=O)N[C@H]1CC[C@H](CC(=O)Nc2cnc(-c3ccc(C(C)(C)N)cc3)c(-c3ccccc3)c2)CC1 [Example A22, N-(trans-4-(2-((6-(4-(2-aminopropan-2-yl)phenyl)-5-phenylpyridin-3-yl)amino)-2-oxoethyl)cyclohexyl)isobutyramide] |
| 810 nM | 25 nM | > 27000 nM | CC(C)(C)C(=O)N[C@H]1CC[C@H](CC(=O)Nc2cnc(-c3ccc(C4(N)CCC4)cc3)c(-c3ccsc3)c2)CC1 [Example A40, N-(trans-4-(2-((6-(4-(1-aminocyclobutyl)phenyl)-5-(thiophen-3-yl)pyridin-3-yl)amino)-2-oxoethyl)cyclohexyl)pivalamide] |
| 370 nM | 20 nM | 9400 nM | NC1(c2ccc(-c3ncc(NC(=O)C[C@H]4CC[C@H](NC(=O)C(F)F)CC4)cc3-c3ccccc3)cc2)CCC1 [Example A35, N-(trans-4-(2-((6-(4-(1-aminocyclobutyl)phenyl)-5-phenylpyridin-3-yl)amino)-2-oxoethyl)cyclohexyl)-2,2-difluoroacetamide] |
